Among the data in PMC6930480, “Inhibition of Porcine Aminopeptidase M (pAMP) by the Pentapeptide Microginins” (Molecules, 2019) are IC50 values, retold here.

This assay has as its target T1, porcine aminopeptidase M (EC 3.4.11.2) (Sus scrofa, UniProt P15145).
T1 construct: purchased Sigma Aldrich; host or cells: pig kidney (tissue-derived)
T1 sequence (P15145 1-963): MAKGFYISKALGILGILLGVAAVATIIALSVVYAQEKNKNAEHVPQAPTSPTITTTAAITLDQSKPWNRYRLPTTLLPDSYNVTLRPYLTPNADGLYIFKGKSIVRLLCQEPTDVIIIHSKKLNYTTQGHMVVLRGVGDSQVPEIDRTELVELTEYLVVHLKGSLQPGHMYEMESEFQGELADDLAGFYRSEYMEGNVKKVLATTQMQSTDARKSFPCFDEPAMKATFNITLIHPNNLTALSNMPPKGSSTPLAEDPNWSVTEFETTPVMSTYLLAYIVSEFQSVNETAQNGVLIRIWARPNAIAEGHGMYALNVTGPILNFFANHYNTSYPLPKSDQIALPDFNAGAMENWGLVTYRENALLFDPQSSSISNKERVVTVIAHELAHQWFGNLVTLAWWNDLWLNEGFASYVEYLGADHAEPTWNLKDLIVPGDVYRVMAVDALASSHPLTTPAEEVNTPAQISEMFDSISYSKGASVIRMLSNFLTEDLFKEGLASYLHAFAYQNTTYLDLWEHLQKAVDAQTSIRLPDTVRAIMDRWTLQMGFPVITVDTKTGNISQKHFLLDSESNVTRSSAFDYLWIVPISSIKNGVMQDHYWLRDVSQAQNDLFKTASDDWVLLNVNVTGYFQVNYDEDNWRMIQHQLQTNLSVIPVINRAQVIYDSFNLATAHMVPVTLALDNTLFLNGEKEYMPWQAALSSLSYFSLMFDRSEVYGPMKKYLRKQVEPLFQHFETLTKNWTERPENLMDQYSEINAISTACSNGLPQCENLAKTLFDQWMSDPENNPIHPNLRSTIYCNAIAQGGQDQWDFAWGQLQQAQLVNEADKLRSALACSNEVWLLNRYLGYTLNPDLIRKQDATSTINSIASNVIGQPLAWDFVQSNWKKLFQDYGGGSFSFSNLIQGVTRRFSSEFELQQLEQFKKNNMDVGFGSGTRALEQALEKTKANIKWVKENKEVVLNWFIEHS
The assay can be described thus: Aminopeptidase M inhibition, spectrophotometric, L-leucine-p-nitroanilide substrate. The format is biochemical. The conditions noted are these: porcine AMP from pig kidney, 1 mU mL^-1; 0.1 M borate buffer pH 8.0; 30 min pre-incubation at 30 °C; inhibitor 0.1-10 μM; L-leucine-p-nitroanilide 1.2 mM; absorbance 405 nm; triplicate, average of three independent experiments.

Peptide text beside a SMILES is read from it.

Description: Inhibition assay spectrophotometrically performed using porcine aminopeptidase M (EC 3.4.11.2, from pig kidney—Sigma Aldrich®). After 30 min pre-incubation at 30 °C, 5 μL of the commercial aminopeptidase M enzyme (1 mU mL^−1) added to microginin solutions (concentrations of 0.1, 0.25, 0.5, 1, 5 and 10 μM). […] The final volume at the 96-well plates was 75 μL (medium composed of 0.1 M borate buffer, Ph 8.0). After 30 min pre-incubation, 30 μL of the L-leucine-p-nitroanilide substrate at the concentration of 1.2 mM were added for the microginins AMP inhibition assays. The kinetics of inhibition of AMP were determined and the reaction interrupted with the addition of 25 μL of 30% acetic acid solution.
To obtain the factor used for the calculation of specific activity, a standard curve was performed with the product of the reaction (p-nitroanilide 1 mM), obtaining the slope of the curve. Absorbance reading was performed on the Spectra Max M2-Molecular Devices® 96-well plate reader with SoftMax Pro® software version 5.3, and the p-nitroanilide product concentrations were determined by the millimolar extinction coefficient at 405 nm as 9.96 (Sigma-Aldrich). After reading the samples, the residual activity calculations performed in mU mL^−1, percentage of activity and inhibition. […]

`CCCCCCC[C@@H](N)[C@H](O)C(=O)N[C@H](C(=O)N[C@@H](CC(C)C)C(=O)N[C@@H](CCc1ccc(O)cc1)C(=O)N[C@@H](Cc1ccc(O)cc1)C(=O)O)C(C)C` [MG756, Ahda-Val-Leu-HTy-Tyr] (HELM PEPTIDE1{[CCCCCCC[C@@H](N)[C@H](O)C(=O)[*:2]].V.L.[O=C([C@H](CCc1ccc(O)cc1)N[*:1])[*:2]].Y}$$$$V2.0) displayed an IC50 of 3.26 ± 0.5 µM.

For the molecule `CCCCCCC[C@@H](NC)[C@H](O)C(=O)N[C@H](C(=O)N[C@@H](CC(C)C)C(=O)N[C@@H](CCc1ccc(O)cc1)C(=O)N[C@@H](Cc1ccc(O)cc1)C(=O)O)C(C)C` [MG770, N-Me-Ahda-Val-Leu-HTy-Tyr] (HELM PEPTIDE1{[CCCCCCC[C@@H](NC)[C@H](O)C(=O)[*:2]].V.L.[O=C([C@H](CCc1ccc(O)cc1)N[*:1])[*:2]].Y}$$$$V2.0), 1.2 ± 0.1 µM corresponded to half-maximal inhibition (IC50).
